Laboratory results published in ChEMBL document CHEMBL3272295, “Drugs derived from cannabinoids. 5. delta6a,10a-Tetrahydrocannabinol and heterocyclic analogs containing aromatic side chains” (J Med Chem, 1976).
Calls of active or inactive are those of the source.

Experiments:
[1] = organism: Rattus norvegicus; assay: animal or person; format: functional; settings: Charles River, route oral
Description: Antidiarrheal activity in Charles River rat assessed as inhibition of castor oil-induced diarrhea by measuring protected animals at 0.5 mg/kg, po administered 1 hr prior to castor oil challenge measured after 1 hr relative to vehicle-treated control

[2] = Acute toxicity in po dosed mouse; format: organism-based; settings: in vivo
[3] = tested on: Mus musculus; assay: Antidepressant activity in po dosed mouse assessed as potentiation of DOPA-induced effect administered 4 hrs prior to DOPA challenge; format: functional; settings: read-out: MED
[4] = tested on: Rattus norvegicus; assay: Antihypertensive activity in spontaneously hypertensive rat model assessed as reduction in blood pressure at 3 mg/kg, po after 3 hrs; format: functional; set-up: scale not given: the % may be the effect or the level left
[5] = tested on: Rattus norvegicus; assay: Antihypertensive activity in spontaneously hypertensive rat model assessed as reduction in blood pressure at 3 mg/kg, po after 24 hrs; format: functional; set-up: scale not given: the % may be the effect or the level left
[6] = tested on: Rattus norvegicus; assay: Antihypertensive activity in spontaneously hypertensive rat model assessed as reduction in blood pressure at 1 mg/kg, po after 3 hrs; format: functional; set-up: scale not given: the % may be the effect or the level left
[7] = tested on: Rattus norvegicus; assay: Antihypertensive activity in spontaneously hypertensive rat model assessed as reduction in blood pressure at 1 mg/kg, po after 24 hrs; format: functional; set-up: scale not given: the % may be the effect or the level left
[8] = tested on: Mus musculus; assay: Analgesic activity in po dosed mouse assessed as inhibition of acetic acid-induced writhing administered 30 mins prior to acetic acid challenge measured after 5 mins for 20 mins; format: functional
[9] = tested on: Rattus norvegicus; assay: Analgesic activity in Sprague-Dawley rat assessed as increase in pain threshold at 10 mg/kg, po after 15 to 90 mins by tail flick test; format: functional
[10] = tested on: Mus musculus; assay: Antianxiety activity in albino BALB/cJ mouse assessed as reduction in footshock-induced fighting behavior at 5 mg/kg, po after 30 to 90 mins; format: functional; set-up: scale not given: the % may be the effect or the level left
[11] = tested on: Rattus norvegicus; assay: Antianxiety activity in Long-Evans rat assessed as reduction in motor activity at 5 mg/kg, po after 2 hrs relative to vehicle-treated control; format: functional; set-up: scale not given: the % may be the effect or the level left
[12] = tested on: Rattus norvegicus; assay: Antianxiety activity in Long-Evans rat assessed as reduction in motor activity at 2 mg/kg, po after 2 hrs relative to vehicle-treated control; format: functional; set-up: scale not given: the % may be the effect or the level left
[13] = tested on: Rattus norvegicus; assay: Antipsychotic activity in rat assessed as reduction of methamphetamine-induced hyperactivity at 5 mg/kg, po administered prior to methamphetamine challenge relative to vehicle-treated control; format: functional; set-up: scale not given: the % may be the effect or the level left
[14] = tested on: Rattus norvegicus; assay: Antipsychotic activity in rat assessed as reduction of methamphetamine-induced hyperactivity at 1 mg/kg, po administered prior to methamphetamine challenge relative to vehicle-treated control; format: functional; set-up: scale not given: the % may be the effect or the level left
[15] = tested on: Rattus norvegicus; assay: Analgesic activity in po dosed Sprague-Dawley rat after 15 to 90 mins by tail flick test; format: functional
[16] = tested on: Mus musculus; assay: Analgesic activity in mouse assessed as inhibition of acetic acid-induced writhing at 20 mg/kg, po administered 30 mins prior to acetic acid challenge measured after 5 mins for 20 mins; format: functional
[17] = tested on: Rattus norvegicus; assay: Antianxiety activity in Long-Evans rat assessed as reduction in motor activity at 40 mg/kg, po after 2 hrs relative to vehicle-treated control; format: functional; set-up: scale not given: the % may be the effect or the level left
[18] = tested on: Rattus norvegicus; assay: Antipsychotic activity in rat assessed as reduction of methamphetamine-induced hyperactivity at 2.5 mg/kg, po administered prior to methamphetamine challenge relative to vehicle-treated control; format: functional; set-up: scale not given: the % may be the effect or the level left
[19] = tested on: Mus musculus; assay: Anticonvulsant activity in po dosed mouse assessed as dose required to protect 80% of animal measured after 1 to 4 hrs by audiogenic seizure test; format: functional
[20] = tested on: Mus musculus; assay: Antianxiety activity in albino BALB/cJ mouse assessed as reduction in footshock-induced fighting behavior at 10 mg/kg, po after 30 to 90 mins; format: functional; set-up: scale not given: the % may be the effect or the level left
[21] = tested on: Rattus norvegicus; assay: Antianxiety activity in Long-Evans rat assessed as reduction in motor activity at 1.25 mg/kg, po after 2 hrs relative to vehicle-treated control; format: functional; set-up: scale not given: the % may be the effect or the level left
[22] = tested on: Rhesus monkey; assay: Antianxiety activity in po dosed rhesus monkey assessed as antiagressive behavior measured every hour post dosing; format: functional; settings: Macaca mulatta, read-out: MED
[23] = tested on: Rattus norvegicus; assay: Analgesic activity in Sprague-Dawley rat assessed as increase in pain threshold at 40 mg/kg, po after 15 to 90 mins by tail flick test; format: functional
[24] = tested on: Mus musculus; assay: Analgesic activity in mouse assessed as inhibition of acetic acid-induced writhing at 10 mg/kg, po administered 30 mins prior to acetic acid challenge measured after 5 mins for 20 mins; format: functional
[25] = tested on: Rattus norvegicus; assay: Antianxiety activity in Long-Evans rat assessed as reduction in motor activity at 10 mg/kg, po after 2 hrs relative to vehicle-treated control; format: functional; set-up: scale not given: the % may be the effect or the level left

With `CC1CCC2=C(C1)c1c(O)cc(C(C)C(C)CCc3ccncc3)cc1OC2(C)C` (stereo not drawn) the inhibition in vivo at 0.5 mg/kg [1] was 90%, the LD50 [2] was ≥ 1000 mg/kg and the minimal effective dose [3] was 20 mg/kg. The Activity [4] was 19%, the Activity [5] was 7% and the Activity [6] was 13%. It also gave an Activity [7] of 15%, an ED50 [8] of 4.7 mg/kg and an Activity [9] of 58%. The Activity [10] was 0%, the Activity [11] was 42% and the Activity [12] was 28%. It also gave an Activity [13] of 13%.
With `C#CCN1CCC2=C(C1)c1c(OC(C)=O)cc(C(C)CCCc3ccc(F)cc3)cc1OC2(C)C` (stereo not drawn) the Activity [14] was 30%, the LD50 [2] was ≥ 1000 mg/kg and the ED50 [15] was 1 mg/kg. The inhibition in vivo at 20 mg/kg [16] was 27%, the Activity [11] was 57% and the Activity [17] was 90%. The Activity [13] was 66%.
For `CCCCCC(C)C(C)c1cc(O)c2c(c1)OC(C)(C)C1CC=C(C)CC21` (stereo not drawn), the LD50 [2] was ≥ 1000 mg/kg, the Activity [18] was 52% and the minimal effective dose [3] was 20 mg/kg. For the same molecule, the Activity [19] was “inactive”, the ED50 [8] was 7.9 mg/kg and the Activity [20] was 89%. For the same molecule, the Activity [21] was 60%, the minimal effective dose [22] was 1 mg/kg and the Activity [13] was 81%.
For `CC1CCC2=C(C1)c1c(O)cc(C(C)CCc3ccc(F)cc3)cc1OC2(C)C` (stereo not drawn), the LD50 [2] was ≥ 1000 mg/kg, the Activity [4] was 28% and the Activity [5] was 8%. The Activity [6] was 8%, the Activity [7] was 5% and the Activity [23] was 70%. It also gave an inhibition in vivo at 10 mg/kg [24] of 27%, an Activity [25] of 72% and an Activity [13] of 23%.
